From patent US12653191B2, “Active compound combinations” (Bayer Aktiengesellschaft, priority 2020, dated 2026)
Read-outs that look alike come from different tables or passages of the source.

Experiments:
Colletotrichum coccodes = test: in vitro-Test with fungal microorganisms, Method B (tables J1-J11); assay type: cell-based; conditions: Colletotrichum coccodes, read-out: Efficacy %
Procedure, shortened: (§1)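 Steps: solvent evaporation leaves the compound coating the wells; fungus-inoculated liquid growth medium goes on top; absorbance at 600 nm is measured; incubation runs 3 to 7 days at 20° C. with 85% relative humidity. Inhibition is then read photometrically and expressed as efficacy against untreated control.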

[1] = test system: Colletotrichum lindemuthianum; test: in vitro-Test with fungal microorganisms, Method A (tables D1-D8); assay type: cell-based; conditions: Colletotrichum lindemuthianum, read-out: Efficacy %
Procedure, shortened: (§2)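 Readout: extinction at 620 nm, measured at start and again 3-5 days later, giving efficacy versus untreated control (0% = control growth, 100% = no growth). Compounds were evaporated from methanol/emulsifier before adding potato dextrose medium with fungal spores or mycelium; incubation 20° C, 85% RH.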

Parastagonospora nodorum [2] = test: in vitro-Test with fungal microorganisms, Method A (tables H1-H4); assay type: cell-based
Method: Example: In Vitro-Test with Fungal Microorganisms
Wells of 96-well microtiter plates are filled with 10 μl of a preparation of test compound or compound combination in methanol+emulsifier alkylaryl-polyglycol-ether. Thereafter, the solvent is evaporated in a hood. At the next step, 100 μl of liquid potato dextrose medium is given into each well, that has been amended with an appropriate concentration of spores or mycelium suspension of the test fungus.
With the aid of a photometer, the extinction in all wells is measured at the wavelength of 620 nm.
The microtiter plates are incubated at 20° C. and 85% relative humidity. The inhibition of growth is determined again photometrically 3-5 days after the application. Efficacy is calculated in relation to the untreated control, 0% efficacy means fungal growth as high as in untreated control while 100% efficacy means no fungal growth is measured.
The data in tables A1 to A12, B1 to B14, C1 to C10, D1 to D8, E1 to E8, F1 to F11, G1 to G4, H1 to H4 and I1 to I5 were collected according to Method A. The data in tables A13 to A22, B15 to B18, C11 to C20, E9 to E16, F12 to F15, G5 to G15, H5 to H8, I6 to I11 and J1 to J11 were collected according to Method B.

Parastagonospora nodorum [3] = test: in vitro-Test with fungal microorganisms, Method B (tables H5-H8); assay type: cell-based; conditions: Parastagonospora nodorum, read-out: Efficacy
Procedure, shortened: as §1

Diaporthe citri [4] = test: in vitro-Test with fungal microorganisms, Method A (tables F1-F11); assay type: cell-based; conditions: Diaporthe citri, applied alone, read-out: Efficacy
Procedure, shortened: as §2

Cordana musae [5] = test: in vitro-Test with fungal microorganisms, Method A (tables E1-E8); assay type: cell-based
Procedure, shortened: as §2

[6] = test system: Ustilago segetum var. avenae; test: in vitro-Test with fungal microorganisms, Method A (tables I1-I5); assay type: cell-based; conditions: alone, read-out: Efficacy %
Procedure, shortened: as §2

Botrytis cinerea [7] = test: in vitro-Test with fungal microorganisms, Method A (tables B1-B14); assay type: cell-based; conditions: for inhibition of growth at 0.8 ppm / inhibition of growth at 4 ppm / inhibition of growth at 20 ppm: Botrytis cinerea
Procedure, shortened: as §2

Cercospora beticola [8] = test: in vitro-Test with fungal microorganisms, Method B (tables C11-C20); assay type: cell-based; conditions: Cercospora beticola, read-out: Efficacy %
Procedure, shortened: as §1

Fusarium culmorum [9] = test: in vitro-Test with fungal microorganisms, Method A (tables G1-G4); assay type: cell-based; conditions: for inhibition of growth at 20 ppm / inhibition of growth at 0.8 ppm / inhibition of growth at 4 ppm: Fusarium culmorum, read-out: Efficacy
Procedure, shortened: as §2

Alternaria alternate = test: in vitro-Test with fungal microorganisms, Method A (tables A1-A12); assay type: cell-based, Alternaria alternata; conditions: Alternaria, applied alone, read-out: Efficacy %
Procedure, shortened: as §2

Diaporthe citri [10] = test: in vitro-Test with fungal microorganisms, Method B (tables F12-F15); assay type: cell-based; conditions: Table F15
Procedure, shortened: as §1

Botrytis cinerea [11] = test: in vitro-Test with fungal microorganisms, Method B (tables B15-B18); assay type: cell-based; conditions: Botrytis cinerea, alone, read-out: Efficacy %
Procedure, shortened: as §1

Cercospora beticola [12] = test: in vitro-Test with fungal microorganisms, Method A (tables C1-C10); assay type: cell-based; conditions: Cercospora beticola, read-out: Efficacy %
Procedure, shortened: as §2

Fusarium culmorum [13] = test: in vitro-Test with fungal microorganisms, Method B (tables G5-G15); assay type: cell-based; conditions: Fusarium culmorum, read-out: Efficacy
Procedure, shortened: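 Efficacy, relative to untreated control (0% = growth as in control, 100% = no growth), from photometric growth measurement at 600 nm after 3 to 7 days at 20° C., 85% relative humidity. Compound applied in methanol+emulsifier, solvent evaporated, then spore/mycelium-amended liquid medium added.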

[14] = test system: Ustilago segetum var. avenae; test: in vitro-Test with fungal microorganisms, Method B (tables I6-I11); assay type: cell-based; conditions: 20 ppm; read-out: Efficacy %
Procedure, shortened: as §1

Alternaria alternata = test: in vitro-Test with fungal microorganisms, Method B (tables A13-A22); assay type: cell-based; conditions: Alternaria alternata, read-out: Efficacy
Procedure, shortened: as §1

Cordana musae [15] = test: in vitro-Test with fungal microorganisms, Method B (tables E9-E16); assay type: cell-based; conditions: Neocordana musae, single active, 4 ppm; read-out: Efficacy
Procedure, shortened: as §1

[16] = single active compound, 0.8 ppm
[17] = alone, 0.8 ppm, read-out: Efficacy %

CCCN(CC)CC1COC2(CCC(C(C)(C)C)CC2)O1 (stereo not drawn) [(1.020) spiroxamine, spiroxamine]
inhibition of growth at 0.8 ppm (Colletotrichum coccodes; 0.8 ppm): 0%
inhibition of growth at 4 ppm (Colletotrichum coccodes; 4 ppm): 0%
inhibition of growth at 20 ppm (Colletotrichum coccodes): 0%
inhibition of growth at 0.8 ppm (Colletotrichum coccodes; applied alone, 0.8 ppm): 0%
inhibition of growth at 20 ppm (Colletotrichum coccodes; applied alone): 39%
inhibition of growth at 0.8 ppm ([1]; mixing partner alone, 0.8 ppm): 0%
inhibition of growth at 20 ppm ([1]; mixing partner alone, 20.0 ppm): 6%
inhibition of growth at 0.8 ppm ([1]; single active at 0.8 ppm): 0%
inhibition of growth at 4 ppm ([1]; single active at 4.0 ppm): 8%
inhibition of growth at 20 ppm ([1]; single active at 20.0 ppm): 0%
Efficacy (Parastagonospora nodorum [2]; [16]): 2%
Efficacy (Parastagonospora nodorum [2]; single active compound, 4.0 ppm): 4%
Efficacy (Parastagonospora nodorum [2]; single active compound, 20.0 ppm): 7%
inhibition of growth at 0.8 ppm (Parastagonospora nodorum [3]; 0.8 ppm): 5%
inhibition of growth at 4 ppm (Parastagonospora nodorum [3]): 5%
inhibition of growth at 20 ppm (Parastagonospora nodorum [3]): 17%
inhibition of growth at 0.8 ppm (Diaporthe citri [4]; 0.8 ppm): 6%
inhibition of growth at 4 ppm (Diaporthe citri [4]): 8%
inhibition of growth at 20 ppm (Diaporthe citri [4]; 20.0 ppm): 0%
inhibition of growth at 20 ppm (Cordana musae [5]; Neocordana musae, mixing partner alone, 20.0 ppm, read-out: Efficacy %): 9%
Efficacy % (Cordana musae [5]; mixing partner alone, 0.8 ppm): 0%
inhibition of growth at 0.8 ppm [6]: 3%
inhibition of growth at 4 ppm [6]: 71%
inhibition of growth at 20 ppm [6]: 100%
inhibition of growth at 0.8 ppm (Botrytis cinerea [7]; 0.8 ppm, read-out: Efficacy): 0%
inhibition of growth at 4 ppm (Botrytis cinerea [7]; read-out: Efficacy): 0%
inhibition of growth at 20 ppm (Botrytis cinerea [7]; read-out: Efficacy): 18%
inhibition of growth at 0.8 ppm (Botrytis cinerea [7]; [17]): 0%
inhibition of growth at 20 ppm (Botrytis cinerea [7]; alone, read-out: Efficacy %): 14%
Efficacy % (Botrytis cinerea [7]; alone, 0.8 ppm): 0%
inhibition of growth at 4 ppm (Cercospora beticola [8]; single compound): 6%
Efficacy (Fusarium culmorum [9]; 4.0 ppm, alone): 0%
inhibition of growth at 20 ppm (Fusarium culmorum [9]; 20.0 ppm, alone): 0%
inhibition of growth at 0.8 ppm (Alternaria alternate; 0.8 ppm): 18%
inhibition of growth at 4 ppm (Alternaria alternate): 12%
inhibition of growth at 20 ppm (Alternaria alternate): 16%
Efficacy (Diaporthe citri [10]; 4 ppm alone): 0%
Efficacy (Diaporthe citri [10]; 20 ppm alone): 4%

O=C(NCCc1ncc(C(F)(F)F)cc1Cl)c1ccccc1C(F)(F)F [(2.005) fluopyram, Fluopyram]
inhibition of growth at 4 ppm (Colletotrichum coccodes; 4 ppm): 14%
inhibition of growth at 0.8 ppm (Colletotrichum coccodes; single active compound at 0.8 ppm): 0%
inhibition of growth at 4 ppm (Colletotrichum coccodes; single active compound at 4 ppm): 0%
inhibition of growth at 0.8 ppm (Botrytis cinerea [11]; 0.8 ppm): 51%
inhibition of growth at 4 ppm (Botrytis cinerea [11]; 4 ppm): 79%
inhibition of growth at 20 ppm (Botrytis cinerea [11]; 20 ppm): 100%
inhibition of growth at 0.8 ppm (Cercospora beticola [12]; 0.8 ppm alone): 0%
inhibition of growth at 4 ppm (Cercospora beticola [12]; 4.0 ppm alone): 27%
inhibition of growth at 20 ppm (Cercospora beticola [12]; 20.0 ppm alone): 39%
inhibition of growth at 4 ppm (Fusarium culmorum [13]; 4 ppm, alone): 21%
inhibition of growth at 0.8 ppm (Fusarium culmorum [13]; [16]): 20%
inhibition of growth at 20 ppm (Fusarium culmorum [13]; single active compound, 20 ppm): 37%
inhibition of growth at 20 ppm ([1]; single active at 20.0 ppm): 23%
Efficacy (Parastagonospora nodorum [2]; 0.8 ppm): 37%
Efficacy (Parastagonospora nodorum [2]; 4.0 ppm): 44%
Efficacy (Parastagonospora nodorum [2]; 20.0 ppm): 70%
inhibition of growth at 4 ppm (Parastagonospora nodorum [3]): 35%
inhibition of growth at 20 ppm (Parastagonospora nodorum [3]): 59%
inhibition of growth at 4 ppm (Diaporthe citri [4]): 15%
inhibition of growth at 0.8 ppm (Cordana musae [5]; Neocordana musae, single substance, 0.8 ppm, read-out: Efficacy %): 0%
inhibition of growth at 4 ppm (Cordana musae [5]; Neocordana musae, single substance, 4.0 ppm, read-out: Efficacy %): 1%
inhibition of growth at 0.8 ppm [6]: 9%
inhibition of growth at 4 ppm [6]: 10%
inhibition of growth at 20 ppm [6]: 10%
inhibition of growth at 0.8 ppm (Botrytis cinerea [7]; 0.8 ppm, read-out: Efficacy): 69%
inhibition of growth at 4 ppm (Botrytis cinerea [7]; read-out: Efficacy): 72%
inhibition of growth at 20 ppm (Botrytis cinerea [7]; read-out: Efficacy): 100%
inhibition of growth at 0.8 ppm (Botrytis cinerea [7]; [17]): 65%
inhibition of growth at 4 ppm (Botrytis cinerea [7]; alone, read-out: Efficacy %): 75%
inhibition of growth at 20 ppm (Botrytis cinerea [7]; alone, read-out: Efficacy %): 75%
inhibition of growth at 20 ppm [14]: 20%
inhibition of growth at 0.8 ppm (Cercospora beticola [8]): 31%
inhibition of growth at 4 ppm (Cercospora beticola [8]): 0%
inhibition of growth at 20 ppm (Cercospora beticola [8]): 56%
inhibition of growth at 0.8 ppm (Cercospora beticola [8]; single compound): 11%
inhibition of growth at 4 ppm (Cercospora beticola [8]; single compound): 0%
inhibition of growth at 20 ppm (Cercospora beticola [8]; single compound): 7%
inhibition of growth at 0.8 ppm (Alternaria alternata): 61%
inhibition of growth at 4 ppm (Alternaria alternata): 81%
inhibition of growth at 20 ppm (Alternaria alternata): 88%
inhibition of growth at 0.8 ppm (Alternaria alternata; single compound): 79%
inhibition of growth at 4 ppm (Alternaria alternata; single compound): 81%
inhibition of growth at 20 ppm (Alternaria alternata; single compound): 91%
inhibition of growth at 0.8 ppm (Fusarium culmorum [9]; 0.8 ppm, alone): 0%
inhibition of growth at 4 ppm (Fusarium culmorum [9]; 4.0 ppm, alone): 0%
inhibition of growth at 20 ppm (Fusarium culmorum [9]; 20.0 ppm, alone): 16%
inhibition of growth at 0.8 ppm (Fusarium culmorum [9]; Table G1, 0.8 ppm alone): 0%
inhibition of growth at 4 ppm (Fusarium culmorum [9]; Table G1, 4.0 ppm alone): 0%
inhibition of growth at 20 ppm (Fusarium culmorum [9]; Table G1, 20.0 ppm alone): 21%
inhibition of growth at 4 ppm (Alternaria alternate): 63%
inhibition of growth at 20 ppm (Alternaria alternate): 82%
inhibition of growth at 4 ppm (Cordana musae [15]): 0%
